Earlier results in patent US8808752B2, “Controlled release particles and method for producing the same” (priority 2009, dated 2014).

| SMILES | water solubility (in words) | water solubility |
| --- | --- | --- |
| C=C(C)C(=O)OCCOC(=O)C(=C)C [Ethylene glycol dimethacrylate] | water-insoluble |  |
| CSc1nc(NC2CC2)nc(NC(C)(C)C)n1 [MBACT, 2-methylthio-4-t-butylamino-6-cyclopropylamino-s-triazine, reference compound] |  | 7 ppm |
| C=C(C)C(=O)O [Methacrylic acid] |  | 8.9 wt % |
| CCCC1COC(Cn2cncn2)(c2ccc(Cl)cc2Cl)O1 (centres unmarked) [Propiconazole, 1-[2-(2,4-dichlorophenyl)-4-n-propyl-1,3-dioxolane-2-ylmethyl]-1H-1,2,4-triazole, reference compound] |  | 110 ppm |
| C=C(C)C(=O)OCCCC [n-Butyl methacrylate] |  | 0.08 wt % |
